Reference: paper PMC12951562, “SH2scan: Mapping SH2 Domain-Ligand Binding Selectivity for Inhibitors and Degraders” (Journal of Medicinal Chemistry, 2026)
Non-standard residues stand in square brackets, D forms with d. Residues, ends and D or L forms follow the SMILES beside them. pY = N[C@@H](Cc1ccc(OP(=O)(O)O)cc1)C(=O)O

Experiments:
Experiment in all cases: biochemical
Assay type in all cases: binding
[1] = target: T1, ABL2 (Homo sapiens, UniProt P42684)
T1 construct: the DNA-tagged SH2 domain concentrations used in this study were <0.1 nM; made in house; host or cells: HEK293 (transient transfection; unpurified extract)
T1 sequence (P42684 173-263 limits assumed): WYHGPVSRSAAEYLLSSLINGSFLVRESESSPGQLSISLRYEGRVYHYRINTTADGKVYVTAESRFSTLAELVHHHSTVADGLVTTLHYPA

[2] = target: T2, LNK (SH2B3) (Homo sapiens, UniProt Q9UQQ2)
T2 construct: the DNA-tagged SH2 domain concentrations used in this study were <0.1 nM; made in house; host or cells: HEK293 (transient transfection, unpurified extract)

[3] = target: T3, CRK (Homo sapiens, UniProt P46108)
T3 construct: the DNA-tagged SH2 domain concentrations used in this study were <0.1 nM; made in house; host or cells: HEK293 (transient transfection; unpurified extract)

[4] = target: T4, GRB14 (Homo sapiens, UniProt Q14449)
T4 construct: the DNA-tagged SH2 domain concentrations used in this study were <0.1 nM; made in house; host or cells: HEK293 (transient transfection; unpurified extract)
T4 sequence (Q14449 439-535 limits assumed): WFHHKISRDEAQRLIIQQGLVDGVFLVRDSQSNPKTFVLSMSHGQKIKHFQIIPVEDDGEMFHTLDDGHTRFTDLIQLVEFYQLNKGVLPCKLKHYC

[5] = target: T5, CSK (Homo sapiens, UniProt P41240)
T5 construct: the DNA-tagged SH2 domain concentrations used in this study were <0.1 nM; made in house; host or cells: HEK293 (transient transfection; unpurified extract)
T5 sequence (P41240 82-171 limits assumed): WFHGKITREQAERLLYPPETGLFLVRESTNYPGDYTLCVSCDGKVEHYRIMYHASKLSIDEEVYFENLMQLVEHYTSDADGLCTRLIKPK

[6] = target: T6, PLCG1(SH2dom.N-term.) (Homo sapiens, UniProt P19174)
T6 construct: SH2dom.N-term. denotes SH2 domain closest to N-terminus of protein; made in house; host or cells: HEK293 (transient transfection, unpurified extract)
T6 sequence (P19174 550-657 limits assumed): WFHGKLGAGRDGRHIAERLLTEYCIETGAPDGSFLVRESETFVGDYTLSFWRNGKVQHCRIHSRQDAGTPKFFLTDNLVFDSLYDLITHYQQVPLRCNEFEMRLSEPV

[7] = target: T7, GRB7 (Homo sapiens, UniProt Q14451)
T7 construct: the DNA-tagged SH2 domain concentrations used in this study were <0.1 nM; made in house; host or cells: HEK293 (transient transfection; unpurified extract)

[8] = target: T8, SHIP2 (Homo sapiens, UniProt O15357)
T8 construct: made in house; host or cells: HEK293 (transient transfection), unpurified extract
T8 sequence (O15357 1-1258): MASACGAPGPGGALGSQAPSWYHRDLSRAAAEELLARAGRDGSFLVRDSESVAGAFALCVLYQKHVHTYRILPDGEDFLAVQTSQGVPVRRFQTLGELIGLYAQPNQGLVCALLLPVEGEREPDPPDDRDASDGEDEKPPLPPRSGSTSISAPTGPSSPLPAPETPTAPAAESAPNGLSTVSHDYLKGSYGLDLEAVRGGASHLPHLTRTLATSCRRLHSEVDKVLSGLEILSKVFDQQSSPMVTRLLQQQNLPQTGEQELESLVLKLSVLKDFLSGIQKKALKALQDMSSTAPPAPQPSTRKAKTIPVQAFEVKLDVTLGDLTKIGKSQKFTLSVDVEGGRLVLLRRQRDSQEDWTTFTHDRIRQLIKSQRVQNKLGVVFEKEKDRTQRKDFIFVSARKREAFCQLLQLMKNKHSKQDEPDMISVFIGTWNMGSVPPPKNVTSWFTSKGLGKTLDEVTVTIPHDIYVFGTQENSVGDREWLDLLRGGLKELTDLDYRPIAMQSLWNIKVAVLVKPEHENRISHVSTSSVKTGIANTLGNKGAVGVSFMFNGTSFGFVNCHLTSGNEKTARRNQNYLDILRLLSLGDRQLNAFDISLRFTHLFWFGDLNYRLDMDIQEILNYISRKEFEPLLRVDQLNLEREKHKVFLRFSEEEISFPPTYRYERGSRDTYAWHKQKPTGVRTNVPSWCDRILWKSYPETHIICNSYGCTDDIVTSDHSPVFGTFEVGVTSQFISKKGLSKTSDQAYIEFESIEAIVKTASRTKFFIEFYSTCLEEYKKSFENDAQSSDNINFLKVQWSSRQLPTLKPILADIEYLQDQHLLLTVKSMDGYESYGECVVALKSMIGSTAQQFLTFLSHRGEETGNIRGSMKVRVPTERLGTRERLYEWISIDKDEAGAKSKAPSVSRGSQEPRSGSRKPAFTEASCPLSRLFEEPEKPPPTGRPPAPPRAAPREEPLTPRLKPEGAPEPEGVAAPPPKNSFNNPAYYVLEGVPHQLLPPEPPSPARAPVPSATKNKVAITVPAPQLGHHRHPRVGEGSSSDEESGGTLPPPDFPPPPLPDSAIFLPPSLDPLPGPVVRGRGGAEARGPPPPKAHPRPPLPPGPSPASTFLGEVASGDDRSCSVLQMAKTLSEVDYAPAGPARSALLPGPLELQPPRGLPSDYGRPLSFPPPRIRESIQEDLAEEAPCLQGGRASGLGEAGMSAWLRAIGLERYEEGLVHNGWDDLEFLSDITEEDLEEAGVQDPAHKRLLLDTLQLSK

[9] = target: T9, SHIP1 (Homo sapiens, UniProt Q92835)
T9 construct: made in house; host or cells: HEK293 (transient transfection), unpurified extract
T9 sequence (Q92835 1-1189): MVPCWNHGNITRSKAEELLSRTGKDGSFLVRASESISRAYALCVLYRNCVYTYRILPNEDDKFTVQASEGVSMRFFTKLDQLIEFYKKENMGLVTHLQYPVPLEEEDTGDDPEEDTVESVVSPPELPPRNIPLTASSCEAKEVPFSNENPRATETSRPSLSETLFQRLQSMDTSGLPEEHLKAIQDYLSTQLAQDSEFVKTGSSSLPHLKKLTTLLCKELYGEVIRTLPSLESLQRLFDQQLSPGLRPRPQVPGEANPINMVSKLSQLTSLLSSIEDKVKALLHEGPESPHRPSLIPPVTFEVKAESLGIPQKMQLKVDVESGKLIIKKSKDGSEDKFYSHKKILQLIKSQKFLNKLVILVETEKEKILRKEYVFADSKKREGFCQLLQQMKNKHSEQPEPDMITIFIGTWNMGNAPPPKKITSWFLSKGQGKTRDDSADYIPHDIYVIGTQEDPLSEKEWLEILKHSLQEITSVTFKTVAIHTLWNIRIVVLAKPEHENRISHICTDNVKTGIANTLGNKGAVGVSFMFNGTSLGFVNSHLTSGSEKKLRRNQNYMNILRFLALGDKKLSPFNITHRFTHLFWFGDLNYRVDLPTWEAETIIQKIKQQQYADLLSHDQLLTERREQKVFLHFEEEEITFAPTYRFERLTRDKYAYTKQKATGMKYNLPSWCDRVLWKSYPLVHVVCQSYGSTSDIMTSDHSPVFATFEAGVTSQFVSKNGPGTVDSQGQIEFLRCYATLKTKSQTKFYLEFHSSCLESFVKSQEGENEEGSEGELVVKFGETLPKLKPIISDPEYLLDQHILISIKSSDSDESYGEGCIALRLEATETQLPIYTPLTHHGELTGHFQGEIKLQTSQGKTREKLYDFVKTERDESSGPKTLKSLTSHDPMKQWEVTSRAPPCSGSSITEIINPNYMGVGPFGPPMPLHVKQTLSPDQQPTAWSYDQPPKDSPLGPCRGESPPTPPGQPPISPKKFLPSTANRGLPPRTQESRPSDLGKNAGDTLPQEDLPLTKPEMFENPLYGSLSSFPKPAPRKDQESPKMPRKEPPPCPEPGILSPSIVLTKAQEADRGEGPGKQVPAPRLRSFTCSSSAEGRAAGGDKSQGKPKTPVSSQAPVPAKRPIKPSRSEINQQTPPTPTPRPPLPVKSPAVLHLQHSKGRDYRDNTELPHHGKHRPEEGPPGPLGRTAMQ

[10] = target: T10, FES (Homo sapiens, UniProt P07332)
T10 construct: the DNA-tagged SH2 domain concentrations used in this study were <0.1 nM; made in house; host or cells: HEK293 (transient transfection; unpurified extract)

[11] = target: T11, PLCG2(SH2dom.N-term.) (Homo sapiens, UniProt P16885)
T11 construct: SH2dom.N-term. denotes SH2 domain closest to N-terminus of protein; made in house; host or cells: HEK293 (transient transfection, unpurified extract)
T11 sequence (P16885 532-635 limits assumed): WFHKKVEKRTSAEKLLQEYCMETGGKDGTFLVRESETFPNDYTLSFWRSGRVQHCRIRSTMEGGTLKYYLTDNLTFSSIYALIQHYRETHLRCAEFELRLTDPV

T2 sequence (Q9UQQ2 364-462 limits assumed): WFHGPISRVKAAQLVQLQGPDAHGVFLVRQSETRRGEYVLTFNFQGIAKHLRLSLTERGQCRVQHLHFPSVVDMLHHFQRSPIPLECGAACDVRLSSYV
T7 sequence (Q14451 431-527 limits assumed): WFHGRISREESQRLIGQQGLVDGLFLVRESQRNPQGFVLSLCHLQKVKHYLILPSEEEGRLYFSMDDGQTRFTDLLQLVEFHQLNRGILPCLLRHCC
T3 sequence (P46108 13-118 limits assumed): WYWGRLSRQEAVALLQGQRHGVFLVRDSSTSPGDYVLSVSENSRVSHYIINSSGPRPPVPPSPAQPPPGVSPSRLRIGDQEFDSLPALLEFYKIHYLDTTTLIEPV
T10 sequence (P07332 460-549 limits assumed): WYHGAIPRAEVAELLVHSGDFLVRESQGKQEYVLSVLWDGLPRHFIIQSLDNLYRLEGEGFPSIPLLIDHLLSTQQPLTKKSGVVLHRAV

Compound `CC[C@H](C)[C@H](NC(=O)[C@@H]1CCCN1C(=O)[C@H](CO)NC(=O)[C@H](CO)NC(C)=O)C(=O)N[C@@H](Cc1ccc(OP(=O)(O)O)cc1)C(=O)N[C@@H](CCC(=O)O)C(=O)N[C@@H](CC(=O)O)C(=O)N[C@@H](C)C(=O)N[C@@H](C)C(N)=O` [Ac-SSPIpYEDAA-NH2] (Ac-SSPI[pY]EDAA-NH2) has a Kd [1] of 6200 ± 584 nM.

With `CC(=O)N[C@@H](CC(N)=O)C(=O)N[C@H](C(=O)NCC(=O)N[C@@H](CC(=O)O)C(=O)N[C@@H](Cc1ccc(OP(=O)(O)O)cc1)C(=O)N[C@@H](Cc1ccc(O)cc1)C(=O)N[C@@H](CC(=O)O)C(=O)N[C@@H](CC(C)C)C(=O)N[C@@H](Cc1ccc(O)cc1)C(=O)NCC(N)=O)[C@@H](C)O` [Ac-NTGDpYYDLYG-NH2] (Ac-NTGD[pY]YDLYG-NH2) the Kd [2] was 3220 ± 595 nM.

`CC(=O)N[C@@H](CCC(=O)O)C(=O)N1CCC[C@H]1C(=O)N[C@@H](C)C(=O)N[C@@H](Cc1c[nH]cn1)C(=O)N[C@@H](C)C(=O)N[C@@H](Cc1ccc(OP(=O)(O)O)cc1)C(=O)N[C@@H](C)C(=O)N[C@@H](CCC(N)=O)C(=O)N1CCC[C@H]1C(=O)N[C@@H](CCC(N)=O)C(=O)N[C@H](C(=O)N[C@H](C(N)=O)[C@@H](C)O)[C@@H](C)O` [Ac-EPAHApYAQPQTT-NH2] (Ac-EPAHA[pY]AQPQTT-NH2) gave a Kd [3] of 1520 ± 695 nM.

With `CSCC[C@H](NC(=O)[C@@H](NC(=O)[C@H](CCC(=O)O)NC(=O)[C@H](Cc1ccc(OP(=O)(O)O)cc1)NC(=O)[C@H](CC(C)C)NC(=O)[C@@H]1CCCN1C(=O)[C@H](CC(=O)O)NC(=O)[C@@H]1CCCN1C(C)=O)C(C)C)C(=O)N[C@@H](CC(C)C)C(=O)N[C@@H](CCCCN)C(=O)N[C@@H](CS)C(=O)N[C@@H](Cc1c[nH]c2ccccc12)C(=O)N[C@@H](CC(=O)O)C(N)=O` (Ac-PDPL[pY]EVMLKCWD-NH2) the Kd [4] was 298 ± 131 nM.

`CC[C@H](C)[C@H](NC(C)=O)C(=O)N[C@@H](CO)C(=O)N[C@@H](C)C(=O)N[C@@H](CCSC)C(=O)N[C@@H](Cc1ccc(OP(=O)(O)O)cc1)C(=O)N[C@@H](CO)C(=O)N[C@@H](CO)C(=O)N[C@H](C(=O)N[C@@H](CCSC)C(=O)N[C@@H](CCCCN)C(N)=O)C(C)C` [Ac-ISAMpYSSVMK-NH2] (Ac-ISAM[pY]SSVMK-NH2) showed a Kd [5] of 48.3 ± 8.04 nM.

Work on `CSCC[C@H](NC(=O)[C@H](CO)NC(=O)[C@H](CC(C)C)NC(=O)[C@H](CC(=O)O)NC(=O)[C@H](CC(C)C)NC(=O)[C@H](Cc1ccc(OP(=O)(O)O)cc1)NC(=O)[C@H](CCC(=O)O)NC(=O)[C@H](CCC(N)=O)NC(=O)[C@H](CC(N)=O)NC(=O)[C@H](CO)NC(=O)[C@@H](NC(C)=O)[C@@H](C)O)C(N)=O` [Ac-TSNQEpYLDLSM-NH2] (Ac-TSNQE[pY]LDLSM-NH2) yielded a Kd [6] of 116 ± 6.69 nM.

In the case of `CC(=O)N1CCC[C@H]1C(=O)N[C@@H](CCC(=O)O)C(=O)N[C@@H](Cc1ccc(OP(=O)(O)O)cc1)C(=O)N[C@H](C(=O)N[C@@H](CC(N)=O)C(=O)N[C@@H](CCC(N)=O)C(N)=O)C(C)C` [Ac-PEpYVNQ-NH2] (Ac-PE[pY]VNQ-NH2), the Kd [7] is reported as 4470 ± 557 nM.

`CC(=O)N[C@@H](CC(N)=O)C(=O)N[C@@H](CC(N)=O)C(=O)N[C@H](C(=O)N[C@@H](C)C(=O)N[C@@H](Cc1ccc(OP(=O)(O)O)cc1)C(=O)N[C@@H](CO)C(=O)N[C@@H](Cc1ccc(O)cc1)C(=O)N[C@@H](CC(C)C)C(=O)N[C@@H](CC(C)C)C(=O)N[C@@H](CC(N)=O)C(=O)N[C@@H](CCCNC(=N)N)C(N)=O)C(C)C` [Ac-NNVApYSYLLNR-NH2] (Ac-NNVA[pY]SYLLNR-NH2) was tested, and the Kd [8] was 3310 ± 622 nM and the Kd [9] was 241 ± 71.8 nM.

In the case of `CC(=O)N[C@H](C(=O)N[C@@H](Cc1ccc(OP(=O)(O)O)cc1)C(=O)N[C@@H](CCC(=O)O)C(=O)N1CCC[C@H]1C(=O)N[C@H](C(=O)N[C@@H](CO)C(=O)N[C@@H](Cc1ccc(O)cc1)C(N)=O)C(C)C)C(C)C` [Ac-VpYEPVSY-NH2] (Ac-V[pY]EPVSY-NH2), the Kd [10] is reported as 711 ± 170 nM.

In the case of `CC[C@H](C)[C@H](NC(=O)[C@@H](NC(=O)[C@H](CC(C)C)NC(=O)[C@H](Cc1ccc(OP(=O)(O)O)cc1)NC(=O)[C@H](CCCNC(=N)N)NC(=O)[C@H](CCC(N)=O)NC(=O)[C@@H]1CCCN1C(=O)[C@H](CC(=O)O)NC(C)=O)C(C)C)C(=O)N[C@@H](CCC(N)=O)C(=O)NCC(=O)N[C@@H](CC(=O)O)C(=O)N[C@@H](CCC(=O)O)C(=O)N[C@@H](CC(=O)O)C(N)=O` [Ac-DPQRpYLVIQGDED-NH2] (Ac-DPQR[pY]LVIQGDED-NH2), the Kd [11] is reported as 521 ± 25.4 nM.
